The text below walks through data of patent US20230286970A1, “NOVEL OXADIAZOLE-BASED SELECTIVE HDAC6 INHIBITORS” (ITALFARMACO S.P.A., priority 2020, published 2023).

A value given as a limit tells only on which side of the number the result lay.

One data set deals with recombinant human HDAC6 (Homo sapiens (Human), UniProt Q9UBN7). The data set is described as follows: Enzymatic screening, HDAC6 inhibition (fluorogenic FdL_G substrate). In kind it is biochemical. In outline:
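Enzyme was preincubated with compound (8 doses, triplicate, 1% DMSO) in 25 mM Tris-HCl pH 8, 130 mM NaCl, 0.05% Tween-20, 10% glycerol, with BSA. A FLUOR DE LYS-Green substrate was then added, and fluorescence was read after developer plus 2 μM TSA.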

Another data set deals with recombinant human HDAC1 (Homo sapiens (Human), UniProt Q13547). The data set is described as follows: Enzymatic screening, HDAC1 inhibition (fluorogenic FdL_G substrate). It counts as biochemical. In outline: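 Recombinant human HDAC1 inhibition was measured fluorometrically using the FLUOR DE LYS-Green (FdL_G) substrate. Compounds at 8 doses (1% DMSO final) in Tris-HCl pH 8 buffer with NaCl, Tween-20 and glycerol were preincubated in triplicate with enzyme and 1 mg/mL BSA, then given substrate. Developer I plus 2 μM TSA was added, and fluorescence read after 25 minutes in the dark.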

The next data set has as its target HDAC2 (Homo sapiens (Human), UniProt Q92769). The data set is described as follows: Enzymatic screening, HDAC2 inhibition. It counts as biochemical. The protocol:
(§1) For each test compound, 100× concentrated DMSO solutions at 8 doses were prepared and then diluted in assay buffer (25 mM Tris-HCl, pH 8, 130 mM NaCl, 0.05% Tween-20, 10% Glycerol) to obtain 5× concentrated solutions in relation to the final concentrations (typical final concentration range—6.4-200000 nM or 0.18-50000 nM, final DMSO content—1%). Then 10 μL solution of each test compound concentration were placed on a 96-well plate in triplicate and 15 μL of 3.33× concentrated enzyme solution in the assay buffer containing 3.33× concentrated BSA (final BSA concentration—2 mg/mL for HDAC4, HDAC5 and HDAC9 or 1 mg/mL for other isoforms) and in the case of HDAC6-3.33× concentrated TCEP (final TCEP concentration—200 μM) were added to each well. After a period of preincubation (incubation times and temperatures vary for different isoforms and are shown in table 1) 25 μL of solution containing the substrate were added. As substrate, FLUOR DE LYS® deacetylase substrate (Enzo Life Sciences, cat: BML-KI104, FdL), FLUOR DE LYS®-Green substrate (Enzo Life Sciences, cat: BML-KI572, FdL_G) or Boc-Lys(Tfa)-AMC (Bachem, cat: 4060676.005, Tfal)—2× concentrated solution in assay buffer were used. Following a reaction period (reaction times and temperatures vary for different isoforms and are reported in Table 1), 50 μL of the development solution consisting of concentrate FLUOR DE LYS® developer I (Enzo Life Sciences, ca: BML-KI105), diluted 200 times in buffer (50 mM Tris-HCl, pH 8, 137 mM NaCl, 2.7 mM KCl, 1 mM MgCl2) plus 2 μM TSA was added and, after 25 minutes at room temperature in the dark, using the Victor 1420 Multilabel Counter Perkin Elmer Wallac instrument, the fluorescence reading was carried out.

Another data set concerns the target HDAC3 (Homo sapiens (Human), UniProt O15379). Nature of the data set: Enzymatic screening, HDAC3 inhibition. In kind it is biochemical. The protocol: as §1
For another data set, the target named is HDAC4 (Homo sapiens (Human), UniProt P56524). Nature of the data set: Enzymatic screening, HDAC4 inhibition. In kind it is biochemical. As to the method:
as §1

The target of another data set is HDAC5 (Homo sapiens (Human), UniProt Q9UQL6). Nature of the data set: Enzymatic screening, HDAC5 inhibition. It counts as biochemical. The protocol:
as §1

The target of another data set is HDAC7 (Homo sapiens (Human), UniProt Q8WUI4). Nature of the data set: Enzymatic screening, HDAC7 inhibition. In kind it is biochemical. As to the method:
as §1

Another data set has as its target HDAC8 (Homo sapiens (Human), UniProt Q9BY41). The data set is described as follows: Enzymatic screening, HDAC8 inhibition. In kind it is biochemical. As to the method: as §1
Another data set has as its target HDAC9 (Homo sapiens (Human), UniProt Q9UKV0). The data set is described as follows: Enzymatic screening, HDAC9 inhibition. It counts as biochemical. The protocol: as §1
The next data set addresses HDAC10 (Homo sapiens (Human), UniProt Q969S8). The data set is described as follows: Enzymatic screening, HDAC10 inhibition. In kind it is biochemical. The protocol: as §1
The target of another data set is HDAC11 (Homo sapiens (Human), UniProt Q96DB2). The data set is described as follows: Enzymatic screening, HDAC11 inhibition. It counts as biochemical. The protocol:
as §1

Data set [1] deals with α-tubulin acetylation in 697 cell line. The data set is described as follows: In vitro α-tubulin acetylation in 697 cell line (ELISA). The settings on record: 16 hours, read-out: fold increase @ 1 uM TubAc (ratio of acetylated tubulin and total tubulin towards control). In kind it is cell-based. The protocol: The in vitro α-tubulin acetylation determination was evaluated on B 697 promyelocytic cell line.
The test molecules were diluted from 20 mM stock solution in DMSO with RPMI 10% FCS+0.01% DMSO medium at 20× concentration compared to the final concentration, added to the cells (15×10^6 cells in a total volume of 30 mL in RPMI medium 10% FCS+0.01% DMSO) to obtain the final concentrations of 1000, 333, 111, 37 nM and incubated at 37° C., 5% CO2 for 16 hours.
At the end of the incubation period, 5×10^6 cells were taken from each sample, centrifuged for 5 minutes at 1100 rpm and washed in 0.9% NaCl at 4° C. The resulting pellet was lysed by treating at 4° C. for 30 minutes with 150 μl of Complete Lysis-M buffer containing protease inhibitors (Complete Lysis-M Roche+Complete Tablets, Mini Easypack, cat: 4719956001) and phosphatase inhibitor cocktails (PhosStop Easypack, Roche, cat: 4906837001), then centrifuged 10 minutes at 14,000 rpm (20817×g). 0.3 μg of supernatant (total protein extract) were diluted in 100 μl of 1×PBS and immobilized in Maxisorp F96 NUN-IMMUNO Plate (Nunc MaxiSorp flat-bottom, Nunc, cat: 442404) at room temperature overnight. Plates were washed twice with Wash Buffer (PBS1×+0.005% tween 20) and saturated for 1 hour at room temperature with 300 μL of 1×PBS containing 10% FCS. After washing twice with Wash Buffer, the plates were incubated for two hours at room temperature in the presence of anti-acetylated-α-tubulin antibody (Monoclonal Anti-acetylated-tubulin clone 6-11B-1, mouse ascites fluid, Sigma, cat: T6793), 100 μl/well diluted 1:1000 in 1×PBS containing 10% FCS) or with total anti-α-tubulin antibody (Monoclonal Anti-alpha-tubulin produced in mouse, Sigma, cat: T6074). Following washing of the pates 5 times with Wash Buffer the secondary antibody conjugated with the enzyme HRP (Goat anti-Mouse IgG, IgM, IgA (H+L), Thermo Fisher Scientific, cat: A10668), diluted 1:1000 in 1×PBS+10% FBS was added at the volume of 100 μl/well.
After washing 4 times, 100 μl/well of TMB substrate kit was added for 10 minutes at room temperature in the dark. The reaction was stopped by adding 50 μl of 2N H2SO4. The plates were read at Multiskan Spectrum spectrophotometer at a wavelength of 450 nm.
The degree of acetylation was calculated by dividing the absorbance obtained for acetylated α-tubulin by the absorbance of total tubulin.
The results of tubulin acetylation, expressed as fold increase of ratio of acetylated α-tubulin/total α-tubulin, of each sample relative to the control sample (untreated) are summarized in table 6.

Another data set in a line: Stability in rat plasma. The settings on record: after 4 hours, 37° C.
A short description of data set [2]: Stability in human plasma. The settings on record: after 4 hours, 37° C.
Data set [3] in a line: Stability to Phase I metabolism in rat S9 liver fraction. The settings on record: after 90 minutes, 37° C.
Data set [4] is described as follows: Stability to Phase I metabolism in human S9 liver fraction. The settings on record: after 90 minutes, 37° C.

recombinant human HDAC6, sequence (Q9UBN7 whole entry): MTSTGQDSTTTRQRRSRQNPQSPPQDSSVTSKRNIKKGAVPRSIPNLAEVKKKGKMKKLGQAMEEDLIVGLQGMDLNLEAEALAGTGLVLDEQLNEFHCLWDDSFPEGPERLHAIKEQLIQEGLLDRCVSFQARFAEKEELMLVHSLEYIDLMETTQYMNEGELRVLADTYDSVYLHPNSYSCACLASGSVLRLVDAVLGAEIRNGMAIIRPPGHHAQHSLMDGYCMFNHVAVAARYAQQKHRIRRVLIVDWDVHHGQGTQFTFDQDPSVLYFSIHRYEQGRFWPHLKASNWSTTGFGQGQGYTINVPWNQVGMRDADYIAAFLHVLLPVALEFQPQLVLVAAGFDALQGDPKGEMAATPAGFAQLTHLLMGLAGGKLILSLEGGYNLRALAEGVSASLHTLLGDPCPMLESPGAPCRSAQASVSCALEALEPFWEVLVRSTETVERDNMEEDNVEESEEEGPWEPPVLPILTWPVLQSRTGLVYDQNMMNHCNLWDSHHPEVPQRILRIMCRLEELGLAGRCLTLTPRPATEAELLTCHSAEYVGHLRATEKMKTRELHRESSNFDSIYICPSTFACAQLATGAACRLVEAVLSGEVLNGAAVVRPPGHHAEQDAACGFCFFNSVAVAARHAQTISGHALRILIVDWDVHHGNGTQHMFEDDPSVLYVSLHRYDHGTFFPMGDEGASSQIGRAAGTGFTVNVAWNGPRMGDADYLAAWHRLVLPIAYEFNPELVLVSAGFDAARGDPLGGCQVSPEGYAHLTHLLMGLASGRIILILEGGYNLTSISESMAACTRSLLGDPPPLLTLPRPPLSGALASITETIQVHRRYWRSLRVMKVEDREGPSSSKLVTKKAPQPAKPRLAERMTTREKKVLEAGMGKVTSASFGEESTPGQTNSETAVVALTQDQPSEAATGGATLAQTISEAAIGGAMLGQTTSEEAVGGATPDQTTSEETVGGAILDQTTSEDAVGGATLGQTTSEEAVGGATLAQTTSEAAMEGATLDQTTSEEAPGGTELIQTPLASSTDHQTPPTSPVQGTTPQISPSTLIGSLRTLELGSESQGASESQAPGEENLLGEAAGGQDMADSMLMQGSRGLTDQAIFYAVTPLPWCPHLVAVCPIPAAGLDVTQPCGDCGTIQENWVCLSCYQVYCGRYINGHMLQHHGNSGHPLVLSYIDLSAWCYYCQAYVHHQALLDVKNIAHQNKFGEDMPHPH
HDAC11, sequence (Q96DB2 whole entry): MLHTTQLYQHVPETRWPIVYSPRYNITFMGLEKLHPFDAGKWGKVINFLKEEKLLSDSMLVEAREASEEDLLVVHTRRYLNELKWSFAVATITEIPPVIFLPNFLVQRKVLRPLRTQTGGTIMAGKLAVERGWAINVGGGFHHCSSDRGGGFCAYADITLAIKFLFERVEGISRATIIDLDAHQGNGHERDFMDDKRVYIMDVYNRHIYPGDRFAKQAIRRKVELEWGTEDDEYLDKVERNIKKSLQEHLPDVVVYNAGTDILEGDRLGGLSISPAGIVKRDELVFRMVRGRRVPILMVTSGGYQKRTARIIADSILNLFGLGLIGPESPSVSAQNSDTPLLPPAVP
HDAC8, sequence (Q9BY41 whole entry): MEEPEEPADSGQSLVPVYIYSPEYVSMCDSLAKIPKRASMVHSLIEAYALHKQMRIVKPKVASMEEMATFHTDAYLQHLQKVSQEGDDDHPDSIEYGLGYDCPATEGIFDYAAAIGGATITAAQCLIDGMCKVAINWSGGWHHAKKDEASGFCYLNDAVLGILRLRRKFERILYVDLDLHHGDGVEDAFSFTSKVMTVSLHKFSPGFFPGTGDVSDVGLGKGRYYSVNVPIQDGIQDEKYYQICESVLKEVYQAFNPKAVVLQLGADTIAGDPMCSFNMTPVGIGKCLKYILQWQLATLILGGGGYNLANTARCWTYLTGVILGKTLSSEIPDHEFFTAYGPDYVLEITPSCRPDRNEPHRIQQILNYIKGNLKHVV
HDAC10, sequence (Q969S8 whole entry): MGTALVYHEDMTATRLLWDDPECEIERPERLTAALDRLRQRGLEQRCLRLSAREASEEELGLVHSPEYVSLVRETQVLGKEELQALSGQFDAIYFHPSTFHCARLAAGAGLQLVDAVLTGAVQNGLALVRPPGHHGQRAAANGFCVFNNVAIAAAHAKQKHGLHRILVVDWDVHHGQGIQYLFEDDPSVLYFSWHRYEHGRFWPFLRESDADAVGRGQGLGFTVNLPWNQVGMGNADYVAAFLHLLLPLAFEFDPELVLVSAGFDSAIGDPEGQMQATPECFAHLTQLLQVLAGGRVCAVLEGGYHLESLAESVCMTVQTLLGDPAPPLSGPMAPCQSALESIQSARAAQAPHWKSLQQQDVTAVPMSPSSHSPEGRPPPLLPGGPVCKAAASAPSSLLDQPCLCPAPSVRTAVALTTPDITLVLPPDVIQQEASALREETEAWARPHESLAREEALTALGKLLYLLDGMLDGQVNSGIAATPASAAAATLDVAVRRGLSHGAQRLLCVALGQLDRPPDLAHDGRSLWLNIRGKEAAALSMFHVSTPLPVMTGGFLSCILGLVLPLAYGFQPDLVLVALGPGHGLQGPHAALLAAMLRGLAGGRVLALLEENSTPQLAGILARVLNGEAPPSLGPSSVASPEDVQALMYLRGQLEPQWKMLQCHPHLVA
HDAC2, sequence (Q92769 whole entry, canonical isoform): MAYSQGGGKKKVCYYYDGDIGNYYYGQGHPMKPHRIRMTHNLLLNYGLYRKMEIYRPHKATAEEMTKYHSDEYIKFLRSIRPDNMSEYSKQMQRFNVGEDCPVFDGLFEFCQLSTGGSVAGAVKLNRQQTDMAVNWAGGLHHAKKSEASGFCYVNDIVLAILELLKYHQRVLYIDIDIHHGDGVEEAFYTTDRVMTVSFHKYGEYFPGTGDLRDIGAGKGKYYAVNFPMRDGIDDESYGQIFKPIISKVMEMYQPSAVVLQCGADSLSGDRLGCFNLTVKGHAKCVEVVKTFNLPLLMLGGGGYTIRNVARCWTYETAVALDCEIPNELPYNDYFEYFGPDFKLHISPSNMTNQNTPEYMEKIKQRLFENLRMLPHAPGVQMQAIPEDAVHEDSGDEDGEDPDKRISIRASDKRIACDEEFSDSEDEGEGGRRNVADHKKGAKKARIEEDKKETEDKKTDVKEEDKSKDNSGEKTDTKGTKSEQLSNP
HDAC5, sequence (Q9UQL6 whole entry): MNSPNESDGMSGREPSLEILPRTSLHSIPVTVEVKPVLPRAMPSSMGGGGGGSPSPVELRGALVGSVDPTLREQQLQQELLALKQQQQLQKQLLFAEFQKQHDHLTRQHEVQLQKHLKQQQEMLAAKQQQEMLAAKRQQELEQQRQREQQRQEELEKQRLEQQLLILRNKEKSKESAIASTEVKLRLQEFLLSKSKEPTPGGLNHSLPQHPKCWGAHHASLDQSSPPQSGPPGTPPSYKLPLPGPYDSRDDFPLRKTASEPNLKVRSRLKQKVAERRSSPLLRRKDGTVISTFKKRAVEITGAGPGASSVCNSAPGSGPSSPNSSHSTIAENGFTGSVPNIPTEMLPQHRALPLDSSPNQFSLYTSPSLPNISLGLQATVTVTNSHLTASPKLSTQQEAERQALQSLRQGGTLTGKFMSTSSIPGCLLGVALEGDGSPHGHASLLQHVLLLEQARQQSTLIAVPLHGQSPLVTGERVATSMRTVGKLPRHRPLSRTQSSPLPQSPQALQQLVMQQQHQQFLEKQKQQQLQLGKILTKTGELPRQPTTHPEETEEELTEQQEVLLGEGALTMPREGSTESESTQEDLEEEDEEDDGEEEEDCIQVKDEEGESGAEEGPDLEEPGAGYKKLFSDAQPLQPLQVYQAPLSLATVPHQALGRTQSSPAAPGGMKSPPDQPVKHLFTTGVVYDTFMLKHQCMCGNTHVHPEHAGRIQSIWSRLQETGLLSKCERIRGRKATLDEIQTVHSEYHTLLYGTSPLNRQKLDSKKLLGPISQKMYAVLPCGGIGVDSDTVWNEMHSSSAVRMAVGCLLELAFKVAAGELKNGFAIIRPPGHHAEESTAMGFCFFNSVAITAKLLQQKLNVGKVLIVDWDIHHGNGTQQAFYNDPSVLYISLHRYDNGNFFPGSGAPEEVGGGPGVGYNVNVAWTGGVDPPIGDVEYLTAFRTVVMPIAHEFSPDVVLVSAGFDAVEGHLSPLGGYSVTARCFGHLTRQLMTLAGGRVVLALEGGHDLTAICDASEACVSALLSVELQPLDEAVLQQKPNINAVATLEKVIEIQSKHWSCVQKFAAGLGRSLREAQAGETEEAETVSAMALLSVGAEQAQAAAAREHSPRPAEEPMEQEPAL
HDAC3, sequence (O15379 whole entry): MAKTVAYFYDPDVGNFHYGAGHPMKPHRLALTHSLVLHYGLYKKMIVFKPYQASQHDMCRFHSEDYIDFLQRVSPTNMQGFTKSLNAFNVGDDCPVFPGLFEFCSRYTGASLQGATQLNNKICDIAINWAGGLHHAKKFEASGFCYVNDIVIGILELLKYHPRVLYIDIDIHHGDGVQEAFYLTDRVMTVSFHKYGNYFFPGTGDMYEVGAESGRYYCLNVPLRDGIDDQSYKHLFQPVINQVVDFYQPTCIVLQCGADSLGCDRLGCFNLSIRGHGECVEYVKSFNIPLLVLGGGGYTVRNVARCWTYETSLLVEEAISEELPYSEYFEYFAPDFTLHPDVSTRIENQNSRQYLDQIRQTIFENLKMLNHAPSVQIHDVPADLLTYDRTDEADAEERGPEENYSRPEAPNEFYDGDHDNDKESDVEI
HDAC3, sequence (Q9Y618 395-489 partner): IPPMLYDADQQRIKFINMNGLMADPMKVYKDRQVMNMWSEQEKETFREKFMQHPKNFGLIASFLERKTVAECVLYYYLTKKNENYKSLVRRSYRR
Procedure for Stability in rat plasma: In order to evaluate the stability to circulating enzymes, test compounds were incubated in human and rat plasma at 37° C. in a thermostated oscillating bath. Each test compound was incubated at μM concentration (50 μM when the samples were analysed by UV/HPLC, 1 or 2 μM when the samples were analysed by LC-MS/MS) for 0, 15, 30 minutes and 1, 2 and 4 hours. The reaction was stopped placing samples on ice bath and adding acidified acetonitrile. After centrifugation (10 minutes at 14000 rpm) an aliquot of the supernatant was diluted with water, filtered with 0.45 μm regenerated cellulose syringe filters and injected in HPLC-UV or in LC-MS/MS. The percentage of the remaining amount at the various incubation times with respect to the initial amount were calculated. The half-life in plasma was also calculated.

For `O=C(Nc1cccc(-c2cn(Cc3ccc(-c4nnc(C(F)F)o4)c(F)c3)nn2)c1)N1CCOCC1` [compound 16, N-(3-(1-(4-(5-(difluoromethyl)-1,3,4-oxadiazol-2-yl)-3-fluorobenzyl)-1H-1,2,3-triazol-4-yl)phenyl)morpholine-4-carboxamide], the IC50 – broadly, the concentration at which inhibition is half-maximal – at recombinant human HDAC6 was 0.029 µM; on recombinant human HDAC1 it was more than 200 µM; on HDAC2, more than 30 µM; on HDAC3 it was more than 30 µM; against HDAC4 it was more than 30 µM; at HDAC5 it was more than 30 µM. The IC50 against HDAC7 was more than 30 µM; against HDAC8, more than 200 µM; against HDAC9, more than 30 µM; on HDAC10 it was more than 30 µM; against HDAC11, more than 30 µM. The fold induction at 1 µM in data set [1] amounted to 19. Also, in the data set “Stability in rat plasma”, the “residual percentage in RAT PLASMA” value is given as 84%. Besides, in data set [2], the “residual percentage in HUMAN PLASMA” value is 75%. Moreover, the “residual percentage in RAT S9 FRACTION” value in data set [3] is given as 88%. Also, the “residual percentage in HUMAN S9 FRACTION” value in [4] came out at 86%.
In the case of `FC(F)c1nnc(-c2ccc(Cn3cnc(-c4ccc(NC5=NCCN5)cc4)c3)cc2)o1` [compound 22, N-(4-(1-(4-(5-(difluoromethyl)-1,3,4-oxadiazol-2-yl)benzyl)-1H-imidazol-4-yl)phenyl)-4,5-dihydro-1H-imidazol-2-amine], the half-inhibitory concentration (IC50) was 0.017 µM at recombinant human HDAC6; more than 200 µM on recombinant human HDAC1; more than 30 µM against HDAC2; more than 30 µM against HDAC3; more than 30 µM on HDAC4; more than 30 µM on HDAC5. The IC50 at HDAC7 is more than 30 µM; against HDAC8 it was more than 200 µM; against HDAC9 it was more than 30 µM; against HDAC10, more than 30 µM; against HDAC11 it was more than 30 µM. In addition, in [1], the fold induction at 1 µM stood at 17. In addition, in the data set “Stability in rat plasma”, the “residual percentage in RAT PLASMA” value is listed as 96%. The “residual percentage in HUMAN PLASMA” value in [2] is 92%. Moreover, the “residual percentage in RAT S9 FRACTION” value in [3] is 98%. The “residual percentage in HUMAN S9 FRACTION” value in [4] turned out to be 88%.
Take `O=C(Nc1cc(-c2nnn(Cc3ccc(-c4nnc(C(F)F)o4)cn3)n2)ccc1O)N1CCOCC1` [compound 2, N-(5-(2-((5-(5-(difluoromethyl)-1,3,4-oxadiazol-2-yl)pyridin-2-yl)methyl)-2H-tetrazol-5-yl)-2-hydroxyphenyl)morpholine-4-carboxamide]: the IC50 on recombinant human HDAC6 was 0.01 µM; on recombinant human HDAC1, more than 200 µM; at HDAC2 it was more than 30 µM; on HDAC3 it was more than 30 µM; against HDAC4, more than 30 µM; against HDAC5, more than 30 µM. The IC50 against HDAC7 was more than 30 µM; on HDAC8, more than 200 µM; on HDAC9, more than 30 µM; on HDAC10 it was more than 30 µM; against HDAC11, more than 30 µM. Also, in data set [1], the fold induction at 1 µM was 26. Also, the “residual percentage in RAT PLASMA” value in the data set “Stability in rat plasma” is on record as 90%. The “residual percentage in HUMAN PLASMA” value in data set [2] is listed as 87%. Moreover, the “residual percentage in RAT S9 FRACTION” value in data set [3] was determined as 61%. For the same compound, the “residual percentage in HUMAN S9 FRACTION” value in data set [4] turned out to be 70%.
For the compound `Nc1ccc(-c2cn(Cc3ccc(-c4nnc(C(F)F)o4)cn3)cn2)cn1` [compound 12, 5-(1-((5-(5-(difluoromethyl)-1,3,4-oxadiazol-2-yl)pyridin-2-yl)methyl)-1H-imidazol-4-yl)pyridin-2-amine], the IC50 was 0.02 µM on recombinant human HDAC6; more than 200 µM at recombinant human HDAC1; more than 30 µM against HDAC2; more than 30 µM against HDAC3; more than 30 µM on HDAC4; more than 30 µM on HDAC5. Also, the IC50 on HDAC7 is more than 30 µM; at HDAC8, more than 200 µM; at HDAC9, more than 30 µM; against HDAC10 it was more than 30 µM; at HDAC11, more than 30 µM. Moreover, the fold induction at 1 µM in data set [1] stood at 11. Further, the “residual percentage in RAT PLASMA” value in the data set “Stability in rat plasma” amounted to 86%. For the same compound, the “residual percentage in HUMAN PLASMA” value in data set [2] amounted to 82%. Besides, in [3], the “residual percentage in RAT S9 FRACTION” value was determined as 98%. The “residual percentage in HUMAN S9 FRACTION” value in [4] is recorded as 96%.
As for `O=C(Nc1cccc(-c2cn(Cc3ccc(-c4nnc(C(F)F)o4)cn3)nn2)c1)N1CCOCC1` [compound 6, N-(3-(1-((5-(5-(difluoromethyl)-1,3,4-oxadiazol-2-yl)pyridin-2-yl)methyl)-1H-1,2,3-triazol-4-yl)phenyl)morpholine-4-carboxamide], the concentration for half-maximal inhibition (IC50) on recombinant human HDAC6 was 0.013 µM; at recombinant human HDAC1, more than 200 µM; on HDAC2, more than 30 µM; at HDAC3 it was more than 30 µM; against HDAC4, more than 30 µM; on HDAC5 it was more than 30 µM. Also, the IC50 at HDAC7 is more than 30 µM; on HDAC8 it was more than 200 µM; against HDAC9, more than 30 µM; on HDAC10 it was more than 30 µM; against HDAC11 it was more than 30 µM. Besides, the fold induction at 1 µM in data set [1] turned out to be 19. Besides, in the data set “Stability in rat plasma”, the “residual percentage in RAT PLASMA” value was found to be 93%. Besides, the “residual percentage in HUMAN PLASMA” value in [2] is on record as 93%. In addition, in data set [3], the “residual percentage in RAT S9 FRACTION” value came out at 93%. For the same compound, the “residual percentage in HUMAN S9 FRACTION” value in data set [4] is listed as 99%.
